Assay results taken from US9440977B2, “Compositions, uses and methods for their preparation” (priority 2013, dated 2016).

Legend:
Assay in all cases: JAK activity, Invitrogen SelectScreen Biochemical Kinase Profiling, Z'-LYTE
Details in all cases: ATP concentration at Km
JAK1 = JAK1 (Homo sapiens, UniProt P23458)
Description: (§1) JAK activity was determined using Invitrogen's SelectScreen® Biochemical Kinase Profiling Service using the Z'-LYTE Screening Protocol and Assay Conditions (ATP concentration at Km).

JAK2 = JAK2 (Homo sapiens, UniProt O60674)
Sequence of JAK2 (O60674 whole entry): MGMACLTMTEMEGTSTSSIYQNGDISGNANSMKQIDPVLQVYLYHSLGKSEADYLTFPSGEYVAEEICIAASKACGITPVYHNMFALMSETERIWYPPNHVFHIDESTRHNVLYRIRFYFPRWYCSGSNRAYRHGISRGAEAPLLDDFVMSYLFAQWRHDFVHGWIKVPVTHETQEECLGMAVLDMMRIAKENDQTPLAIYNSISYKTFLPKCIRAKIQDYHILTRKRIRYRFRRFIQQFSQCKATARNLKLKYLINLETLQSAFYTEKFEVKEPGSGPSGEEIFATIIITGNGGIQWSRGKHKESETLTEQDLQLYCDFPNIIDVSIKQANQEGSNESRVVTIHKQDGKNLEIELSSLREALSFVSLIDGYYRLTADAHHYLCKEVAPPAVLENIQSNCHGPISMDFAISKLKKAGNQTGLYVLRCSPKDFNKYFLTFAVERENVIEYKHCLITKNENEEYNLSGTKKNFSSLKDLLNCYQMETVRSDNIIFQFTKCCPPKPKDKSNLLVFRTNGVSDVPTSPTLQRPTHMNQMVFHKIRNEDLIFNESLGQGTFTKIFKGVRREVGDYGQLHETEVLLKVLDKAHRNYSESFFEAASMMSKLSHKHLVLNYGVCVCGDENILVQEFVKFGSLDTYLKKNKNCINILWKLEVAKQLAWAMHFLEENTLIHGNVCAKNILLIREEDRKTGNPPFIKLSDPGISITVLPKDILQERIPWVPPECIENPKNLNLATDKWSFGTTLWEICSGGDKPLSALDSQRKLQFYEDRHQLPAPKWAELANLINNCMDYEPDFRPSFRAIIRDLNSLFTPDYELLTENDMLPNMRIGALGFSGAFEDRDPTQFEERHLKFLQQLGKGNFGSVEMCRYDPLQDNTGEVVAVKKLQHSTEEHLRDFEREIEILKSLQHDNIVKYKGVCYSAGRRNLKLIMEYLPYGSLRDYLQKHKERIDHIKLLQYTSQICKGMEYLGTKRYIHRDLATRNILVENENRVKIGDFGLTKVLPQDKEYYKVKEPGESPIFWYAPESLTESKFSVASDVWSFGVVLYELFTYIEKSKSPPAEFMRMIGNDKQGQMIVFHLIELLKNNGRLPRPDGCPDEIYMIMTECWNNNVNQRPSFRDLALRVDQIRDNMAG
Description: as §1

JAK3 = target: T1, JAK3 (Homo sapiens, UniProt P52333)
T1 sequence (P52333 1-1124): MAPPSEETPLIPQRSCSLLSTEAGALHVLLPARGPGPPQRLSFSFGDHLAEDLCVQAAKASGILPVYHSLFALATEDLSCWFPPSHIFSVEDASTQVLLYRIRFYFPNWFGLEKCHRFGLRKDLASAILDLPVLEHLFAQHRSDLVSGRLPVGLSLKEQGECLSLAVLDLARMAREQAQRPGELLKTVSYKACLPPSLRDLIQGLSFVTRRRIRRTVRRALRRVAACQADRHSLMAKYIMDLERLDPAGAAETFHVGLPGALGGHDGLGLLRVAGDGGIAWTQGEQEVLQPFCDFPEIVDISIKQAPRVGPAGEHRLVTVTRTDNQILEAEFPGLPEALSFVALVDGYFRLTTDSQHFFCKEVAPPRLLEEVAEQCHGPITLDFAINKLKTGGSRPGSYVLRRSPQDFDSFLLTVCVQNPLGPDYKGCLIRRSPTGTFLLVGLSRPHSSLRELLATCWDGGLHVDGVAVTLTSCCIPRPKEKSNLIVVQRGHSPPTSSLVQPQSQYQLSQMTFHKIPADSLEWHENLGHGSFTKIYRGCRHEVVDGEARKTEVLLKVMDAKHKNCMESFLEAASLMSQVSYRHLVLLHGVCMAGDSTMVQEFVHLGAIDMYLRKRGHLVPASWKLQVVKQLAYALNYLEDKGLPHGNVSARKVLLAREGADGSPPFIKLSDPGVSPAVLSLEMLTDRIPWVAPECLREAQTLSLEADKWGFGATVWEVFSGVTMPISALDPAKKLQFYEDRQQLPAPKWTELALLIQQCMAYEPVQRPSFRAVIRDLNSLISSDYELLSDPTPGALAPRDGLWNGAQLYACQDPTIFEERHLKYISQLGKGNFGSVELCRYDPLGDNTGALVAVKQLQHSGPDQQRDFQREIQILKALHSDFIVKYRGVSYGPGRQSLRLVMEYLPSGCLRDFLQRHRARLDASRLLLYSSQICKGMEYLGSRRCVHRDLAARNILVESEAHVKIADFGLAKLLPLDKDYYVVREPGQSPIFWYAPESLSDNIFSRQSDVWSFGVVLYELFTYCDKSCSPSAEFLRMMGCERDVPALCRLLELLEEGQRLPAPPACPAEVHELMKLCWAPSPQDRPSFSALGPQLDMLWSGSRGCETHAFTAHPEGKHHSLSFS
Description: as §1

Sequence of JAK1 (P23458 whole entry): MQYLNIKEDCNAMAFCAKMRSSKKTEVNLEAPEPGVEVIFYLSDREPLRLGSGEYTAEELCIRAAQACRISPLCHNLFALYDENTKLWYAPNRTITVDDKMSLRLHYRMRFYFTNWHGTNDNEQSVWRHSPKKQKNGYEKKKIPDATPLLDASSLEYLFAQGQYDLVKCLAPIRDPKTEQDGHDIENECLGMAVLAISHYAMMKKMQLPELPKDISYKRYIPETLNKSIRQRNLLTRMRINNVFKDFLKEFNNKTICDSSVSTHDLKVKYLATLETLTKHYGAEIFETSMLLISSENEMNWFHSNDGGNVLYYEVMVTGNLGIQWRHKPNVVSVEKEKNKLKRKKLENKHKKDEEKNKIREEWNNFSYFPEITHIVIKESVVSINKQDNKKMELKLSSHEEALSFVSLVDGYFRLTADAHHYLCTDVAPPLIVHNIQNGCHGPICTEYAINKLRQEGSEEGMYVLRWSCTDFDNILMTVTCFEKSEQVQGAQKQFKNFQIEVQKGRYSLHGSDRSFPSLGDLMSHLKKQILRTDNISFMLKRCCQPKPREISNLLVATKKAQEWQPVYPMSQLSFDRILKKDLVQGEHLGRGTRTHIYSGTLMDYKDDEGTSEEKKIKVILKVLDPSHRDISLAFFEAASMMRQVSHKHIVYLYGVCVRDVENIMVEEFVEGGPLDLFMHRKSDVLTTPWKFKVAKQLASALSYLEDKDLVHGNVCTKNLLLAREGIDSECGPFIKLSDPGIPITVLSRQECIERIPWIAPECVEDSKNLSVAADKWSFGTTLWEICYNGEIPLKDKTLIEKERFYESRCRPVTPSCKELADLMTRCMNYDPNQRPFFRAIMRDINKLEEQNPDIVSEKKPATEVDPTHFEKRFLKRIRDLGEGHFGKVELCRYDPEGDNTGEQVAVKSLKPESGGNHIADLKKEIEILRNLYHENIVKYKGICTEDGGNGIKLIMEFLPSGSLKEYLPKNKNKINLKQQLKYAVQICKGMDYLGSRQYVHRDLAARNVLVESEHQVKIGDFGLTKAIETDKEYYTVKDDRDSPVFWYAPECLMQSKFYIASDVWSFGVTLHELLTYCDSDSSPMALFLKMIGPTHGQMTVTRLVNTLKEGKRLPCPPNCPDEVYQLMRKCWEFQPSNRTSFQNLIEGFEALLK

| IC50 (JAK1) | IC50 (JAK2) | IC50 (JAK3) | SMILES |
| --- | --- | --- | --- |
| 0.01 to 0.1 µM | < 0.01 µM | > 0.1 µM | N#CCC(C1CCCC1)n1cc2c(n1)C(=O)c1c[nH]c3nccc-2c13 (stereo not drawn) [Example 1, 3-cyclopentyl-3-{7-oxo-4,5,10,12-tetraazatetracyclo[6.6.1.0^2,6.0^11,15]pentadeca-1(15),2,5,8,11,13-hexaen-4-yl}propanenitrile] |
| > 0.1 µM | 0.01 to 0.1 µM | > 0.1 µM | N#CCC(C1CCCC1)n1ncc2c1C(=O)c1c[nH]c3nccc-2c13 (stereo not drawn) [Example 2, 3-cyclopentyl-3-{7-oxo-4,5,10,12-tetraazatetracyclo[6.6.1.0^2,6.0^11,15]pentadeca-1(15),2(6),3,8,11,13-hexaen-5-yl}propanenitrile] |
| 0.01 to 0.1 µM | < 0.01 µM | > 0.1 µM | N#CC[C@H](C1CCCC1)n1cc2c(n1)C(=O)c1c[nH]c3nccc-2c13 [Example 4, (3R)-3-cyclopentyl-3-{7-oxo-4,5,10,12-tetraazatetracyclo[6.6.1.0^2,6.0^11,15]pentadeca-1(15),2,5,8,11,13-hexaen-4-yl}propanenitrile] |
